One test has as its target T1, cathepsin G (cat G) (Homo sapiens, UniProt P08311).
T1 sequence (P08311 21-255): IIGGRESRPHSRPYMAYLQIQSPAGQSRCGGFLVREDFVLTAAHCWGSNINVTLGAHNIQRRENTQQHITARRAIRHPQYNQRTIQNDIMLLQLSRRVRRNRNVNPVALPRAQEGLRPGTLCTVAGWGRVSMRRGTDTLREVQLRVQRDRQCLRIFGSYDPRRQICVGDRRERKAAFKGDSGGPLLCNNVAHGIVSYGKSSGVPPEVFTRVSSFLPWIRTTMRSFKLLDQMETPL
Nature of the test: Inactivation of cathepsin G by biotin-isocoumarins (incubation method). To be noted: inhibitor 75-400 μM; pH 7.5, 25° C.; NI = no inhibition after 10 min of incubation; read-out: kobs/[I] Cat. G. The class given is biochemical. The method, then: (§1) Inactivation rates of serine proteases by substituted isocoumarins were measured by the incubation method. An aliquot of inhibitor (25 or 50 μl) in Me2 SO was added to a buffered enzyme solution (0.01-2.3 μM) to initiate the inactivation. Aliquots (50-100 μl) were withdrawn at various intervals and the residual enzymatic activity was measured. Me2 SO concentration in the reaction mixture was 8-12% (v/v). 0.1M Hepes, 0.5M NaCl, pH 7.5 buffer was utilized for the assays of chymotrypsin, cathepsin G (cat G), porcine pancreatic elastase (PPE), human leukocyte elastase (HLE) and rat granule serine proteases. 0.1M Hepes, 0.01M CaCl2, pH 7.5 buffer was utilized for the assays of trypsin and human recombinant (HR) granzyme A. The inhibitor concentrations are shown in the Tables I and II. Peptide nitroanilides with appropriate sequence were used as substrates for various serine proteases. All peptide 4-nitroanilide hydrolysis was measured at 410 nm (ε410 =8800M^-1 cm^-1; Erlanger et al., Arch. Biochem. Biophys. 95, pp 271-278 (1961), incorporated herein by reference). Peptide thioester hydrolysis rates were measured with assay mixtures containing 4,4'-dithiodipyridine (ε324 =19800M^-1 cm^-1; Grasetti & Murray, Arch. Biochem. Biophys. 119, pp. 41-49 (1967), incorporated herein by reference). First order inactivation rate constant (kobs) were obtained from plots of ln (vt /vo) vs time, and the correlation coefficients were greater than 0.98.
(§2) ^a Inhibition was measured in 0.1 M Hepes, 0.5 M NaCl (or 0.01 M
(§3) CaCl2), pH 7.5 buffer, 5-10% Me2 SO and at 25° C.
(§4) SucVal-Pro-NA (0.48 mM) was used as the substrate for chymotrypsin and ca
(§5) G. MeOSuc-Ala-Ala-Pro-Val-NA (0.24-0.47 mM) and SucAla-Ala-Ala-NA
^c Inhibitor concentrations were 75-400 μM.
(§6) ^h No inhibition after 10 min of incubation of inhibitor and enzyme.
(§7) ^i Percentage of inhibition after 10 min of incubation of inhibitor

Test [1] has as its target T2, PPE (Sus scrofa, UniProt P00772). The experiment in a line: Reactivation of inhibited PPE in buffer and with NH2OH. The class given is biochemical, porcine. To be noted: for % of Enzyme Activity Reactivated, PPE +NH2OH: 0.4 M NH2OH, immediately after addition; for % of Enzyme Activity Reactivated, PPE in buffer: after removal of excess inhibitor, 25° C. for two days, 2880 min. As to the method: (§8) ^a Inhibition was performed at 0.1 M Hepes, 0.5 M NaCl, pH 7.5 buffer
(§9) 10% Me2 SO and 25° C. Reactivation was carried out in the
(§10) presence of 0.4 M of NH2 OH, and occurred immediately after the
(§11) ^b Enzyme activity was measured after removal of excess inhibitor by
(§12) centrifugation at 0° C. with centricon10 microconcentrator and
(§13) staying at 25° C. for two days.

The target of test [2] is T3, human leukocyte elastase (HLE) (Homo sapiens, UniProt P08246).
T3 sequence (P08246 30-267): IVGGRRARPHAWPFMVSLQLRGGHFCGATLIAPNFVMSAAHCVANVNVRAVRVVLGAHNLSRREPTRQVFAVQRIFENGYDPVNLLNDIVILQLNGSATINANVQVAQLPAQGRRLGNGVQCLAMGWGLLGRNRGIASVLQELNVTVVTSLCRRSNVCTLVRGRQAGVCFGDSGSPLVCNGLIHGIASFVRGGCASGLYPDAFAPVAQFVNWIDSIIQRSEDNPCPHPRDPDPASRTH
The experiment in a line: Inactivation of human leukocyte elastase by biotin-isocoumarins (incubation method). The test is classed as biochemical. To be noted: inhibitor 1.6-210 μM; pH 7.5, 25° C.; read-out: kobs/[I] HLE. As to the method: as §1, §2, §3, §5
(§14) (0.29-0.48 mM) were used as the substrate for HLE and PPE respectively.
^d Inhibitor concentrations were 1.6-210 μM.

The target in test [3] is T4, trypsin (Bos taurus, UniProt P00760).
T4 sequence (P00760 24-246): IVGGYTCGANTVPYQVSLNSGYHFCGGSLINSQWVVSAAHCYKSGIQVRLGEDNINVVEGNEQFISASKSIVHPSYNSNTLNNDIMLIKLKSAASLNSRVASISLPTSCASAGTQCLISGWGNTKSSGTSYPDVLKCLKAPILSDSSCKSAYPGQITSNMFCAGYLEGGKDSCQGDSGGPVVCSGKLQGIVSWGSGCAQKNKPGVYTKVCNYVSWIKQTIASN
Nature of the test: Reactivation of inhibited trypsin in buffer. The test is classed as biochemical. To be noted: after removal of excess inhibitor, 25° C. for two days. The method, then:
as §8, §9, §11, §12, §13

Test [4] concerns the target T4, trypsin. The experiment in a line: Inactivation of trypsin by biotin-isocoumarins (incubation method). The test is classed as biochemical. To be noted: inhibitor 41-42 μM; 0.1 M Hepes, 0.01 M CaCl2, pH 7.5, 25° C.; read-out: kobs/[I] Trypsin. As to the method: as §1, §2, §3
(§15) ZGlu-Phe-Arg-NA (0.032 mM) was a substrate for trypsin. ZArg-SBzl (0.120
^f Inhibitor concentrations were 41-42 μM.

For test [5], the target named is porcine pancreatic elastase (PPE) (Sus scrofa, UniProt P00772). Nature of the test: Inactivation of porcine pancreatic elastase by biotin-isocoumarins (incubation method). The class given is biochemical. To be noted: inhibitor 38-78 μM; pH 7.5, 25° C.; NI = no inhibition after 10 min of incubation; read-out: kobs/[I] PPE. The method, then: as §1, §2, §3, §5, §14
^e Inhibitor concentrations were 38-78 μM.
as §6

Test [6] concerns the target T5, chymotrypsin (Bos taurus, UniProt P00766). Nature of the test: Inactivation of chymotrypsin by biotin-isocoumarins (incubation method). The test is classed as biochemical, bovine. To be noted: 0.1 M Hepes, 0.5 M NaCl, pH 7.5, 5-10% Me2SO, 25° C., two values given for some compounds; for kinact/KI: pH 7.5, inhibitor 20-400 μM, read-out: kobs/[I] Chymotrypsin. As to the method: as §1, §2, §3, §4
^b Inhibitor concentrations were 20-400 μM.

Test [7] has as its target T2, PPE. The experiment in a line: Effect of streptavidin and avidin on reactivation of inhibited PPE. The class given is biochemical, porcine. To be noted: monitored for two days. As to the method: (§16) ^a Percentage of regained enzymatic activity was measured in 0.1 M
(§17) Hepes, 0.5 M NaCl, pH 7.5 buffer, 8% Me2 SO and at 25° C.
(§18) Excess inhibitor was removed from enzymeinhibitor mixture by
(§19) centrifugation twice with Amicon microconcentrator10. Then 3-4 units of
(§20) avidin or strepavidin was added and enzymatic activity was monitored for […]

Test [8] addresses T6, human recombinant (HR) granzyme A (Homo sapiens, UniProt P12544).
T6 sequence (P12544 29-262): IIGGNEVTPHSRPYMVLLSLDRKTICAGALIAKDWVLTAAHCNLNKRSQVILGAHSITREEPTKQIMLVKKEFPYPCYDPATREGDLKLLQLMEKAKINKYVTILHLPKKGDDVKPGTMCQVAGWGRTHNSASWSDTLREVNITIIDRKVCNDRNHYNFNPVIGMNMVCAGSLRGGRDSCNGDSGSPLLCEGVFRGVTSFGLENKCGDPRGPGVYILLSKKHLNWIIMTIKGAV
Nature of the test: Inactivation of human recombinant granzyme A by biotin-isocoumarins (incubation method). The class given is biochemical. To be noted: inhibitor 160-210 μM, pH 7.5, 25° C. As to the method:
as §1, §2, §3, §15
mM) was a substrate for human recombinant (HR) granzyme A.
^g Inhibitor concentrations were 160-210 μM.
as §6, §7

Test [9] has as its target T5, chymotrypsin. The experiment in a line: Reactivation of inhibited chymotrypsin in buffer and with NH2OH. The test is classed as biochemical, bovine. As to the method: as §8, §9, §10, §11, §12, §13
The subject of test [10] is Rat Granule Chymase. Nature of the test: Reactivation of inhibited rat granule chymase with NH2OH. The class given is biochemical. To be noted: 0.4 M NH2OH, immediately after addition. The method, then: as §8, §9
presence of 0.4 M of NH2 OH, and occurred immediately after the […]

In test [11] the test system is Rat Granule Chymase. Nature of the test: Inhibition of rat granule chymase. The class given is biochemical. To be noted: [I] 0.2 mM; inhibition not time dependent; pH 7.5, 10% Me2SO, 25° C. The method, then: as §1, with “First order inactivation rate constant (kobs) were obtained from plots of ln (vt /vo) vs time, and the correlation coefficients were greater than 0.98.” left out
(§21) ^a Inhibition was measured in 0.1 M Hepes, 0.5 M NaCl, pH 7.5 buffer, […]

For another test, the target named is Rat Granule Tryptase. The experiment in a line: Inhibition of rat granule tryptase. The test is classed as biochemical. To be noted: [I] 0.078 mM or 0.2 mM as per table line; pH 7.5, 10% Me2SO, 25° C. The method, then: as §1, with “First order inactivation rate constant (kobs) were obtained from plots of ln (vt /vo) vs time, and the correlation coefficients were greater than 0.98.” left out
as §21

For test [12], the target named is T5, chymotrypsin. Nature of the test: Effect of streptavidin and avidin on reactivation of inhibited chymotrypsin. To be noted: monitored for two days. The test is classed as biochemical, bovine. As to the method:
as §16, §17, §18, §19, §20

Where [13] appears, read: 3-4 units streptavidin, 2880 min.

T2 sequence (P00772 27-266): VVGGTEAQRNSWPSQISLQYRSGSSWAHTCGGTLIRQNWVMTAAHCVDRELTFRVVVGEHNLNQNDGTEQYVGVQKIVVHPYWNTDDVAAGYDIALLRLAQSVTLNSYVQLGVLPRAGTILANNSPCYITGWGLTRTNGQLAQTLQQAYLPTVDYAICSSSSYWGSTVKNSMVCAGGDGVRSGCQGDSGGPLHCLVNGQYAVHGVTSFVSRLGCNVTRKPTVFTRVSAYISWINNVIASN
Chain of porcine pancreatic elastase (PPE) (P00772 27-266): as above

On to `CCCOc1oc(=O)c2cc(NC(=O)CCCCCNC(=O)CCCC[C@@H]3SC[C@@H]4NC(=O)N[C@@H]43)ccc2c1Cl` [Compound 4, 7-(6-biotinylaminocaproyl)amino-4-chloro-3-propoxyisocoumarin], for which the kinact/KI at cathepsin G (cat G) came to 3.3 M⁻¹ s⁻¹; in test [2], 76700 M⁻¹ s⁻¹; on trypsin [4] it was 10.6 M⁻¹ s⁻¹; in [5], 350 M⁻¹ s⁻¹; on chymotrypsin [6], 260 M⁻¹ s⁻¹. The “% of Enzyme Activity Reactivated, PPE +NH2OH” value at PPE [1] came to 90%. Further, the “% of Enzyme Activity Reactivated, PPE in buffer” value on PPE [1] was 37%. The “% of Enzyme Activity Reactivated, Trypsin in buffer” value at trypsin [3] stood at 33%. For the same compound, the “% of Regained Enzyme Activity, PPE, +Avidin” value at PPE [7] (3-4 units avidin, 2880 min) is 32%. For the same compound, the “% of Regained Enzyme Activity, PPE, +Streptavidin” value at PPE [7] (setting [13]) came to 43%. Further, the “% of Regained Enzyme Activity, PPE, Buffer” value on PPE [7] (pH 7.5, 8% Me2SO, 25° C.) stood at 37%.
Consider `CCOc1oc(=O)c2cc(NC(=O)CCCCCNC(=O)CCCC[C@@H]3SC[C@@H]4NC(=O)N[C@@H]43)ccc2c1Cl` [Compound 5, 7-(6-biotinylaminocaproyl)amino-4-chloro-3-ethoxyisocoumarin], for which the kinact/KI turned out to be 59 M⁻¹ s⁻¹ at cathepsin G (cat G); 96000 M⁻¹ s⁻¹ in test [2]; 16.6 M⁻¹ s⁻¹ on trypsin [4]; 520 M⁻¹ s⁻¹ in [5]; 260 M⁻¹ s⁻¹ at chymotrypsin [6]. Also, the “Percentage of inhibition of HR Granzyme A after 10 min of incubation of inhibitor and enzyme” value in test [8] was 26%. Further, the “% of Enzyme Activity Reactivated, PPE +NH2OH” value on PPE [1] was determined as 93%. The “% of Enzyme Activity Reactivated, PPE in buffer” value at PPE [1] was 66%. Also, the “% of Enzyme Activity Reactivated, Trypsin in buffer” value on trypsin [3] was 92%.
As for `O=C(CCCC[C@@H]1SC[C@@H]2NC(=O)N[C@@H]21)Nc1ccc2c(Cl)c(OCCc3ccccc3)oc(=O)c2c1` [Compound 1, 7-biotinylamino-4-chloro-3-(2-phenylethoxy)isocoumarin], the “% of Enzyme Activity Reactivated, Chymotrypsin +NH2OH” value on chymotrypsin [9] (0.4 M NH2OH, immediately after addition) came out at 100%. Further, the “% of Enzyme Activity Reactivated, Chymotrypsin in buffer” value on chymotrypsin [9] (after removal of excess inhibitor, 25° C. for two days) amounted to 15%. For the same compound, the “% of Enzyme Activity Reactivated, Rat granule chymase +NH2OH” value in the test with Rat Granule Chymase [10] turned out to be 100%. In the test with Rat Granule Chymase [11], the “Rat Granule Chymase % of inhibition” value is on record as 10-20%. Also, the “Rat Granule Tryptase kobs/[I]” value on Rat Granule Tryptase lay in the range of 2 to 3 M⁻¹ s⁻¹. Also, at chymotrypsin [12] (setting [13]), the “% of Regained Enzyme Activity, Chymotrypsin, +Streptavidin” value turned out to be 27%. Further, at chymotrypsin [12] (pH 7.5, 8% Me2SO, 25° C.), the “% of Regained Enzyme Activity, Chymotrypsin, Buffer” value is 10%. For the same compound, the results for the kinact/KI (in test [2]; at trypsin [4]; at chymotrypsin [6]) were 740 M⁻¹ s⁻¹, 1.1 M⁻¹ s⁻¹ and 330 M⁻¹ s⁻¹, respectively. The “kobs/[I] Chymotrypsin” value at chymotrypsin [6] (inhibitor 20-400 μM) was 165 M⁻¹ s⁻¹.
